Each structure is given as a SMILES string. Counter-ions that a name gives are not always drawn. Like-named read-outs stand apart in the source and are kept apart here.

Consider 35 compounds from patent publication US6989389B2, “Aryl ether substituted imidazoquinolines” (3M Innovative Properties Co., priority 2000, dated 2006).

The test system of the test is Peripheral blood mononuclear cells (PBMC). Put plainly: Cytokine Induction in Human Cells (in vitro human blood cell system, IFN and TNF secreted into culture media). It is filed as cell-based. More on the design: key to Lowest Effective Concentration (μM) Tumor Necrosis Factor / Lowest Effective Concentration (μM) Interferon: *: no induction was seen at any of the tested concentrations. The following applies: 18 to 24 hours, tested 30-0.014 μM; for minimal effective concentration: Homo sapiens, PBMC. The source says: An in vitro human blood cell system is used to assess cytokine induction. Activity is based on the measurement of interferon and tumor necrosis factor (α) (IFN and TNF, respectively) secreted into culture media as described by Testerman et. al. In “Cytokine Induction by the Immunomodulators Imiquimod and S-27609”, Journal of Leukocyte Biology, 58, 365-372 (September, 1995).
Whole blood from healthy human donors is collected by venipuncture into EDTA vacutainer tubes. Peripheral blood mononuclear cells (PBMC) are separated from whole blood by density gradient centrifugation using Histopaque®-1077. Blood is diluted 1:1 with Dulbecco's Phosphate Buffered Saline (DPBS) or Hank's Balanced Salts Solution (HBSS). The PBMC layer is collected and washed twice with DPBS or HBSS and resuspended at 4×10^6 cells/mL in RPMI complete. The PBMC suspension is added to 48 well flat bottom sterile tissue culture plates (Costar, Cambridge, Mass. or Becton Dickinson Labware, Lincoln Park, N.J.) containing an equal volume of RPMI complete media containing test compound.
The compounds are solubilized in dimethyl sulfoxide (DMSO). The DMSO concentration should not exceed a final concentration of 1% for addition to the culture wells. The compounds are generally tested at concentrations ranging from 30-0.014 μM.
The solution of test compound is added at 60 μM to the first well containing RPMI complete and serial 3 fold dilutions are made in the wells. The PBMC suspension is then added to the wells in an equal volume, bringing the test compound concentrations to the desired range (30-0.014 μM). The final concentration of PBMC suspension is 2×10^6 cells/mL. The plates are covered with sterile plastic lids, mixed gently and then incubated for 18 to 24 hours at 37° C. in a 5% carbon dioxide atmosphere.
Following incubation the plates are centrifuged for 10 minutes at 1000 rpm (˜200×g) at 4° C. The cell-free culture supernatant is removed with a sterile polypropylene pipet and transferred to sterile polypropylene tubes. Samples are maintained at −30 to −70° C. until analysis. The samples are analyzed for interferon (α) by ELISA and for tumor necrosis factor (α) by ELISA or IGEN Assay.
Interferon (α) concentration is determined by ELISA using a Human Multi-Species kit from PBL Biomedical Laboratories, New Brunswick, N.J. Results are expressed in pg/mL.
Tumor necrosis factor (α) (TNF) concentration is determined using ELISA kits available from Biosource International, Camarillo, Calif. Alternately, the TNF concentration can be determined by Origen® M-Series Immunoassay and read on an IGEN M-8 analyzer from IGEN International, Gaithersburg, Md. The immunoassay uses a human TNF capture and detection antibody pair from Biosource International, Camarillo, Calif. Results are expressed in pg/mL.
The table below lists the lowest concentration found to induce interferon and the lowest concentration found to induce tumor necrosis factor for each compound.

Setting [1] is: lowest concentration found to induce interferon (α), ELISA, read-out: Lowest Effective Concentration (μM) Interferon.
The mark [2] stands for this setting: lowest concentration found to induce tumor necrosis factor (α), ELISA or IGEN assay, read-out: Lowest Effective Concentration (μM) Tumor Necrosis Factor.
The mark [3] stands for this setting: lowest concentration found to induce tumor necrosis factor (α), ELISA or IGEN assay.
Where [4] appears, read: lowest concentration found to induce interferon (α), ELISA.

As to `CCCCc1nc2c(N)nc3c(c2n1CCOCc1ccc(C)cc1)CCCC3` [Example 90], the minimal effective concentration under setting [1] stood at 0.12 µM and the minimal effective concentration under setting [2] came out at 10 µM.

With `Nc1nc2ccccc2c2c1ncn2CC(OCc1cccc(Cl)c1)c1ccccc1` (stereo not shown) [Example 30], the minimal effective concentration under setting [1] came out at 3.33 µM. Besides, the “Lowest Effective Concentration (μM) Tumor Necrosis Factor” value under setting [3] is recorded as “*”.

In the case of `C#CCOCCn1c(CCOC)nc2c(N)nc3ccccc3c21` [Example 144, 2-(2-Methoxyethyl)-1-[2-(prop-2-ynyloxy)ethyl]-1H-imidazo[4,5-c]quinolin-4-amine], the minimal effective concentration is, setting by setting: under setting [1], 0.01 µM; under setting [2], 0.04 µM.

With `CC(Cn1cnc2c(N)nc3ccccc3c21)OCc1ccc(Cl)c(Cl)c1` (stereo not shown) [Example 53], under setting [1], the minimal effective concentration came out at 1.11 µM. Further, the “Lowest Effective Concentration (μM) Tumor Necrosis Factor” value under setting [3] was “*”.

As to `CC(COCc1ccc(Cl)cc1)n1cnc2c(N)nc3ccccc3c21` (stereo not shown) [Example 73], under setting [1], the minimal effective concentration is 1.11 µM. Also, under setting [3], the “Lowest Effective Concentration (μM) Tumor Necrosis Factor” value was “*”.

Consider `C[C@@H](COCc1ccc(C#N)cc1)Cn1cnc2c(N)nc3ccccc3c21` [Example 110], for which, under setting [1], the minimal effective concentration stood at 3.33 µM. The “Lowest Effective Concentration (μM) Tumor Necrosis Factor” value under setting [3] is listed as “*”.

Consider `CC(C)(Cn1cnc2c(N)nc3ccccc3c21)OCc1cccc(Cl)c1` [Example 35], for which the “Lowest Effective Concentration (μM) Interferon” value under setting [4] is recorded as “*”. Also, the “Lowest Effective Concentration (μM) Tumor Necrosis Factor” value under setting [3] is listed as “*”.

Turning to `CCCCc1nc2c(N)nc3c(c2n1CCOCc1cccc(C(F)(F)F)c1)CCCC3` [Example 92], the minimal effective concentration runs as follows: under setting [1], 3.33 µM; under setting [2], 3.33 µM.

Take `CC[C@@H](COCc1ccc(C#N)cc1)n1cnc2c(N)nc3ccccc3c21` [Example 143, 4-({[(2S)-2-(4-Amino-1H-imidazo[4,5-c]quinolin-1-yl)butyl]oxy}methyl)benzonitrile]: the minimal effective concentration turned out to be 1.11 µM under setting [1] and 3.33 µM under setting [2].

For `Nc1nc2ccccc2c2c1ncn2CC(OCCCCOc1ccccc1)c1ccccc1` (stereo not shown) [Example 79], under setting [4], the “Lowest Effective Concentration (μM) Interferon” value is “*”. Moreover, the “Lowest Effective Concentration (μM) Tumor Necrosis Factor” value under setting [3] is “*”.

As for `Nc1nc2ccccc2c2c1ncn2COCCOCc1ccccc1` [Example 84], the minimal effective concentration under setting [1] was 0.37 µM. In addition, under setting [3], the “Lowest Effective Concentration (μM) Tumor Necrosis Factor” value is given as “*”.

For `CC[C@H](COCCCc1ccccc1)n1cnc2c(N)nc3ccccc3c21` [Example 109, 1-{(1R)-1-[(3-Phenylpropoxy)methyl]propyl}-1H-imidazo[4,5-c]quinolin-4-amine], the minimal effective concentration by setting is: under setting [1], 0.01 µM; under setting [2], 0.37 µM.

As for `CC(Cn1cnc2c(N)nc3ccccc3c21)OCc1cccc2ccccc12` (stereo not shown) [Example 69], under setting [1], the minimal effective concentration was found to be 1.11 µM. The “Lowest Effective Concentration (μM) Tumor Necrosis Factor” value under setting [3] was “*”.

As to `CCC(COCc1cccc(C(F)(F)F)c1)n1cnc2c(N)nc3ccccc3c21` (stereo not shown) [Example 26], the minimal effective concentration under setting [1] was 0.12 µM. Under setting [3], the “Lowest Effective Concentration (μM) Tumor Necrosis Factor” value is given as “*”.

For the compound `CCC(COCc1ccc(C)cc1)n1cnc2c(N)nc3ccccc3c21` (stereo not shown) [Example 49], under setting [1], the minimal effective concentration came to 0.04 µM. The “Lowest Effective Concentration (μM) Tumor Necrosis Factor” value under setting [3] is on record as “*”.

For the compound `CCC(COc1ccccc1)n1cnc2c(N)nc3ccccc3c21` (stereo not shown) [Example 106, 1-[(1-Phenoxymethyl)propyl]-1H-imidazo[4,5-c]quinolin-4-amine], under setting [1], the minimal effective concentration is 0.37 µM. In addition, the “Lowest Effective Concentration (μM) Tumor Necrosis Factor” value under setting [3] is listed as “*”.

On to `CC(Cn1cnc2c(N)nc3ccccc3c21)OCc1ccc(Cl)cc1` (stereo not shown) [Example 52], for which the minimal effective concentration under setting [1] was found to be 1.11 µM. Besides, the “Lowest Effective Concentration (μM) Tumor Necrosis Factor” value under setting [3] is given as “*”.

As to `CC(COCc1ccccc1)n1cnc2c(N)nc3ccccc3c21` (stereo not shown) [Example 70], under setting [1], the minimal effective concentration is 0.37 µM. The “Lowest Effective Concentration (μM) Tumor Necrosis Factor” value under setting [3] is recorded as “*”.

For `COC(=O)c1ccc(COCC(C)n2cnc3c(N)nc4ccccc4c32)cc1` (stereo not shown) [Example 71], the minimal effective concentration under setting [1] amounted to 3.33 µM. In addition, the “Lowest Effective Concentration (μM) Tumor Necrosis Factor” value under setting [3] is listed as “*”.

In the case of `CCC(COc1ccc(NC(C)=O)cc1)n1cnc2c(N)nc3ccccc3c21` (stereo not shown) [Example 104], the minimal effective concentration came out at 0.12 µM under setting [1] and 10 µM under setting [2].

Consider `COC(=O)c1ccc(COCC(C(C)C)n2cnc3c(N)nc4ccccc4c32)cc1` (stereo not shown) [Example 66], for which, under setting [4], the “Lowest Effective Concentration (μM) Interferon” value is “*”. For the same compound, under setting [3], the “Lowest Effective Concentration (μM) Tumor Necrosis Factor” value is “*”.

For `CC(C)(Cn1cnc2c(N)nc3ccccc3c21)OCc1ccccc1C#N` [Example 39], the minimal effective concentration under setting [1] stood at 1.11 µM. In addition, the “Lowest Effective Concentration (μM) Tumor Necrosis Factor” value under setting [3] is “*”.

As for `Nc1nc2ccccc2c2c1ncn2CC(OCc1ccc(Cl)cc1)c1ccccc1` (stereo not shown) [Example 29], under setting [4], the “Lowest Effective Concentration (μM) Interferon” value is on record as “*”. Moreover, under setting [3], the “Lowest Effective Concentration (μM) Tumor Necrosis Factor” value was “*”.

Take `CCc1nc2c(N)nc3ccccc3c2n1C(CC)COCc1ccccc1` (stereo not shown) [Example 82]: the “Lowest Effective Concentration (μM) Interferon” value under setting [4] is given as “*”. Also, the “Lowest Effective Concentration (μM) Tumor Necrosis Factor” value under setting [3] was “*”.

As to `Cc1cccc(COCCCCn2cnc3c(N)nc4ccccc4c32)c1` [Example 76], the minimal effective concentration under setting [1] was 1.11 µM. In addition, under setting [3], the “Lowest Effective Concentration (μM) Tumor Necrosis Factor” value was “*”.

`Nc1nc2ccccc2c2c1ncn2CCOCCCc1cccc(C(=O)O)c1` [Example 12, 3-{3-[2-(4-Amino-1H-imidazo[4,5-c]quinolin-1-yl)ethoxy]propyl}benzoic acid bis(trifluoroacetate)]: the minimal effective concentration under setting [1] is 10 µM. The “Lowest Effective Concentration (μM) Tumor Necrosis Factor” value under setting [3] is “*”.

As to `Cc1nc2c(N)nc3ccccc3c2n1CCOCC#Cc1ccccc1` [Example 118, 2-Methyl-1-{2-[(3-phenylprop-2-ynyl)oxy]ethyl}-1H-imidazo[4,5-c]quinolin-4-amine], the minimal effective concentration under setting [1] was 0.01 µM and the minimal effective concentration under setting [2] was determined as 0.04 µM.

Turning to `CCC(COCc1ccc(OC(F)(F)F)cc1)n1cnc2c(N)nc3ccccc3c21` (stereo not shown) [Example 48], the minimal effective concentration under setting [1] turned out to be 0.12 µM. Also, under setting [3], the “Lowest Effective Concentration (μM) Tumor Necrosis Factor” value is given as “*”.

As to `Cc1cccc(COC(Cn2cnc3c(N)nc4ccccc4c32)c2ccccc2)c1` (stereo not shown) [Example 32], under setting [1], the minimal effective concentration amounted to 10 µM. The “Lowest Effective Concentration (μM) Tumor Necrosis Factor” value under setting [3] is “*”.

Turning to `CCCCc1nc2c(N)nc3c(c2n1CCOCc1ccc(C(C)(C)C)cc1)CCCC3` [Example 95], under setting [1], the minimal effective concentration was determined as 1.11 µM. Under setting [3], the “Lowest Effective Concentration (μM) Tumor Necrosis Factor” value is recorded as “*”.

Take `Nc1nc2ccccc2c2c1ncn2CCCCOCc1ccc(C(F)(F)F)cc1` [Example 78]: under setting [4], the “Lowest Effective Concentration (μM) Interferon” value is “*”. Besides, the “Lowest Effective Concentration (μM) Tumor Necrosis Factor” value under setting [3] is reported as “*”.

With `CCC(COCc1ccccc1)n1c(C)nc2c(N)nc3ccccc3c21` (stereo not shown) [Example 81], the minimal effective concentration under setting [1] was found to be 1.11 µM. Further, the “Lowest Effective Concentration (μM) Tumor Necrosis Factor” value under setting [3] is “*”.

Consider `CC(Cn1cnc2c(N)nc3ccccc3c21)OCc1ccc(C(F)(F)F)cc1` (stereo not shown) [Example 68], for which, under setting [1], the minimal effective concentration was determined as 3.33 µM. Moreover, under setting [3], the “Lowest Effective Concentration (μM) Tumor Necrosis Factor” value is recorded as “*”.

In the case of `COC(=O)c1ccc(COCCn2cnc3c(N)nc4ccccc4c32)cc1` [Example 41], the minimal effective concentration is 1.11 µM under setting [1] and 3.33 µM under setting [2].

For `CC(C)c1ccccc1C#CCOCCn1cnc2c(N)nc3ccccc3c21` [Example 7, 1-(2-{[3-(2-Isopropylphenyl)-2-propynyl]oxy}ethyl)-1H-imidazo[4,5-c]quinolin-4-amine Hydrochloride], the minimal effective concentration reads like this: under setting [1], 1.11 µM; under setting [2], 0.37 µM.
